Patent US6818648B2, “Aryloxy- and arylthiosubstituted pyrimidines and triazines and derivatives thereof” (Bristol-Myers Squibb Pharma, priority 1996, dated 2004)

Row | melting point [°C] | Compound
1 | 63 to 67 | C=C(C)c1cc(Br)c(Oc2nc(C)nc(N3CCOCC3)n2)c(OC)c1 [Example 5, 2-[2-bromo-6-methoxy-4-(1-methylethenyl)phenoxy]-4-methyl-6-(4-morpholinyl)-1,3,5-triazine]
2 | 131 to 133 | C=C(C)c1cc(Br)c(Oc2nc(C)nc(N3CCOCC3)n2)c(OC)c1 [Example 6, 2-[2-bromo-6-methoxy-4-(1-methylethenyl)phenoxy]-4-methyl-6-(4-morpholinyl)-1,3,5-triazine]
